Laboratory results published in paper PMC8226474, “Design, Syntheses, and Bioevaluations of Some Novel N^2-Acryloylbenzohydrazides as Chemostimulants and Cytotoxic Agents” (Medicines, 2021).
Like-named read-outs stand apart in the source and are kept apart here.

Legend:
[1] = test system: MCF-7 cells; experiment: Cytotoxicity assay, MCF-7 breast cancer cells; format: cell-based, human; conditions: Homo sapiens, MCF7, 48 h, read-out: percentage inhibition of MCF-7 cells
Text: (§1) Evaluation of the cytotoxic properties of the compounds presented in Table 1, Table 2, Table 3 and Table 4 was undertaken using the procedure outlined in [7]. In brief, the HCT 116 cells were obtained from the ATCC and cultured in McCoy’s 5A medium. The CRL 1790 cells were obtained from the ATCC and cultured in Minimum Essential Medium. The MCF-7 and MDA-MBA-231 cells were obtained from the Saskatchewan Cancer Agency and cultured in DMEM. In each assay the culture medium was supplemented with 10% fetal bovine serum and 1% penicillin–streptomycin antibiotics. The time of the bioassays was 48 h, unless indicated otherwise. All determinations were carried out in triplicate on three different occasions.

[2] = test system: MDA-MB-231 cells; experiment: Cytotoxicity assay, MDA-MB-231 breast cancer cells; format: cell-based, human; conditions: Homo sapiens, MDA-MB-231, 48 h, read-out: percentage inhibition of MDA-MB-231 cells
Text: as §1

[3] = test system: HCT 116 cells; experiment: Cytotoxicity assay, HCT 116 colon cancer cells; format: cell-based, human; conditions: for SI (selectivity index): IC50 CRL 1790 / IC50 HCT 116
Text: as §1

[4] = test system: CRL 1790 cells; experiment: Cytotoxicity assay, non-malignant CRL 1790 colon cells; format: cell-based; conditions: Homo sapiens, 48 h
Text: as §1

[5] = test system: HCT 116 cells; experiment: Mitochondrial membrane potential of HCT 116 cells (TMRE dye); format: cell-based, human; conditions: IC50 concentration towards HCT 116, 48 h, Figure 4
Text: The method of Crowley et al. was employed in order to ascertain the effects of 1m, 7a, e, g, and 5-FU on the mitochondrial membrane potential of HCT 116 cells.
The decision was made to experiment with another method for determining the effect of compounds on the MMP. In this assay, the dye used was tetramethylrhodamine ethyl ester (TMRE), which can be found in the mitochondria of healthy cells. However, in apoptotic cells, the dye is released into the cytosol, leading to a decrease in the fluorescence signal.

[6] = test system: HCT 116 cells; experiment: ROS levels in HCT 116 cells (DCF-DA dye); format: cell-based, human; conditions: IC50 concentration towards HCT 116; DCF-DA fluorescence; Figure 5
Experimental: In this assay, the dye 2,7-dichlorofluorescein diacetate (DCF-DA) was used, and the effects of 1m, 7a, e, g, and 5-FU on the ROS levels in HCT 116 cells were determined by the method of [11].
The evaluation of 1m, […], e, and g for their capacity to increase the concentration of ROS in HCT 116 cells used 2′,7′-dichlorofluorescein diacetate. This dye is deacetylated in cells, and is converted into a non-fluorescent compound that reacts with ROS to form 2′,7′-dichlorofluorescein, which is fluorescent.

[7] = Homo sapiens, HCT-116, Table 4, 48 h, read-out: IC50 HCT 116
[8] = ratio of IC50 values towards HCT 116 cells
[9] = Table 4, read-out: IC50 CRL 1790

Row | SMILES | inhibition at 10 µM ([1]; 10 µM) [%] | inhibition at 100 µM ([1]; 100 µM) [%] | inhibition at 10 µM ([2]; 10 µM) [%] | inhibition at 100 µM ([2]; 100 µM) [%] | melting point [°C] | inhibition at 10 µM ([3]; Homo sapiens, HCT-116, 10 µM, 48 h, read-out: percentage inhibition of HCT 116 cells) [%] | inhibition at 100 µM ([3]; Homo sapiens, HCT-116, 100 µM, 48 h, read-out: percentage inhibition of HCT 116 cells) [%] | IC50 ([3]; Homo sapiens, HCT-116, Table 2, 48 h, read-out: Neoplastic Cells IC50, HCT 116) [µM] | SI (selectivity index) ([3]; Table 2) | IC50 ([4]; Table 2, read-out: Non-Malignant CRL 1790 Cells IC50) [µM] | effect on mitochondrial membrane potential of HCT 116 cells [5] | effect on ROS levels in HCT 116 cells [6] | IC50 [3, 7] [µM] | times more potent than 1a [3, 8] [times] | IC50 [4, 9] [µM] | SI (selectivity index) ([3]; Table 4) | times more potent than 5-FU [3, 8] [times] | times the antineoplastic activity of melphalan [3, 8] [times]
1 | CCC(=O)NNC(=O)c1ccccc1 [6a, N^2-Propionylbenzohydrazide] | -19.6 ± 3.66 | -5.69 ± 2.54 | -25.3 ± 1.82 | -11.6 ± 2.52 | 106 to 107 | -10.5 ± 2.93 | 9.35 ± 2.53 | > 100 | ~1.00 | > 100 | – | – | – | – | – | – | – | –
2 | O=C(CCN1CC(=Cc2ccccc2)C(=O)C(=Cc2ccccc2)C1)NNC(=O)c1ccccc1 [7a, 3,5-Bis(benzylidene)-1-[3-(phenylcarbonylaminoamino)-3-oxo-1-propyl]-4-piperidone] | – | – | – | – | 154 to 156 | – | – | – | – | – | only 7e reduces the electrochemical potential of the mitochondria | increase the fluorescence intensity | 1.38 ± 0.25 | 26.7 | 12.3 ± 1.09 | – | – | –
3 | COc1ccc(C(=O)NNC(=O)CCN2CC(=Cc3ccc([N+](=O)[O-])cc3)C(=O)C(=Cc3ccc([N+](=O)[O-])cc3)C2)cc1OC [7e, 3,5-Bis(4-nitrobenzylidene)-1-[3-(3,4-dimethoxyphenylcarbonylaminoamino)-3-oxo-1-propyl]-4-piperidone] | – | – | – | – | 153 to 158 | – | – | – | – | – | reduces the electrochemical potential of the mitochondria | increase the fluorescence intensity | 0.28 ± 0.01 | – | 4.57 ± 0.53 | 16.3 | 14.7 | 119
4 | COc1ccc(C(=O)NNC(=O)CCN2CC(=Cc3ccc(C)cc3)C(=O)C(=Cc3ccc(C)cc3)C2)cc1OC [7g, 3,5-Bis(4-methylbenzylidene)-1-[3-(3,4-dimethoxyphenylcarbonylaminoamino)-3-oxo-1-propyl]-4-piperidone] | – | – | – | – | 190 to 192 | – | – | – | – | – | only 7e reduces the electrochemical potential of the mitochondria | increase the fluorescence intensity | 1.94 ± 0.18 | – | 9.24 ± 0.52 | 4.76 | – | –
